Assay results reported in patent publication US10351561B2, “Pyrazolo[3,4-b]pyridines and imidazo[1,5-b]pyridazines as PDE1 inhibitors” (H. Lundbeck A/S, priority 2016, dated 2019).

What was measured:
Assay type in all cases: biochemical
PDE1A = PDE1A (Homo sapiens, UniProt P54750); assay: PDE1 inhibition assay (PDE1A), SPA with tritium labelled cAMP; conditions: 15 nM tritium labelled cAMP, 1 hr at room temperature, SPA beads
PDE1B = PDE1B (Homo sapiens, UniProt Q01064); assay: PDE1 inhibition assay (PDE1B), SPA with tritium labelled cAMP; conditions: 15 nM tritium labelled cAMP, 1 hr at room temperature, SPA beads; read-out: PDE1B, IC50
Chain of PDE1B (Q01064 whole entry): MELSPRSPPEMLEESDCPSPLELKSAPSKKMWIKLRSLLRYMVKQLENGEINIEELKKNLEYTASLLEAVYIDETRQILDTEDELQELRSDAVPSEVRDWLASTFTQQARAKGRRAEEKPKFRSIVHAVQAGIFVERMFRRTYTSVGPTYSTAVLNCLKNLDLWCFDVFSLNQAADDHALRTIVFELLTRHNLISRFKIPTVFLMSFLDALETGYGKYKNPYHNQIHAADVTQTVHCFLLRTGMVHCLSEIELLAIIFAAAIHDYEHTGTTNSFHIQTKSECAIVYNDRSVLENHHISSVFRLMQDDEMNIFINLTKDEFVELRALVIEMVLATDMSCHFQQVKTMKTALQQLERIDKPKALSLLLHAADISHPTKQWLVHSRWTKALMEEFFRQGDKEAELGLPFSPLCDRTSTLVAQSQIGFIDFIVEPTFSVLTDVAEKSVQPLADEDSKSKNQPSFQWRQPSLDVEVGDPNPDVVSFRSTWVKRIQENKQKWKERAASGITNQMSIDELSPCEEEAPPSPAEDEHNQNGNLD
Experimental: Reactions were initiated by addition of the cyclic nucleotide substrate, and reactions were allowed to proceed for 1 hr at room temperature before being terminated through mixing with 20 μL (0.2 mg) yttrium silicate SPA beads (PerkinElmer).

PDE1C = PDE1C (Homo sapiens, UniProt Q14123); assay: PDE1 inhibition assay (PDE1C), SPA with tritium labelled cAMP; conditions: 15 nM tritium labelled cAMP, 1 hr at room temperature, SPA beads
Chain of PDE1C (Q14123 whole entry): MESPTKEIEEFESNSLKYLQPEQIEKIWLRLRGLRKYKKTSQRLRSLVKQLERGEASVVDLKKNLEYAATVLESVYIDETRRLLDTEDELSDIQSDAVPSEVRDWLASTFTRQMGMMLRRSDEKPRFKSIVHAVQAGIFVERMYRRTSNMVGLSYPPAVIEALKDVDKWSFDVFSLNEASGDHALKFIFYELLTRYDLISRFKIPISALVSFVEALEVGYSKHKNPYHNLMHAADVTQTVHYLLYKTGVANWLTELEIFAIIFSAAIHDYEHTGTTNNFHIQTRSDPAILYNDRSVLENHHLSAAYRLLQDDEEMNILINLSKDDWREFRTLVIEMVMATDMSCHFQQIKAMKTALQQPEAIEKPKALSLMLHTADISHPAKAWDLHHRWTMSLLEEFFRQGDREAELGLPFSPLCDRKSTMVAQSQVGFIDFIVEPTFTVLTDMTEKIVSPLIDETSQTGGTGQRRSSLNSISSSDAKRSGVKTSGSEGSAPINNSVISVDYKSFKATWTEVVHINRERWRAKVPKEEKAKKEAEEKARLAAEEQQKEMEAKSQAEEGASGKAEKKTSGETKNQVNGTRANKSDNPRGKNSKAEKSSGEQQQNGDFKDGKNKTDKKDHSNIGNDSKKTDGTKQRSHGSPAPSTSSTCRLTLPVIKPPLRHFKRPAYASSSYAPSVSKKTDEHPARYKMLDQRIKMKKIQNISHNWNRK

Chain of PDE1A (P54750 whole entry): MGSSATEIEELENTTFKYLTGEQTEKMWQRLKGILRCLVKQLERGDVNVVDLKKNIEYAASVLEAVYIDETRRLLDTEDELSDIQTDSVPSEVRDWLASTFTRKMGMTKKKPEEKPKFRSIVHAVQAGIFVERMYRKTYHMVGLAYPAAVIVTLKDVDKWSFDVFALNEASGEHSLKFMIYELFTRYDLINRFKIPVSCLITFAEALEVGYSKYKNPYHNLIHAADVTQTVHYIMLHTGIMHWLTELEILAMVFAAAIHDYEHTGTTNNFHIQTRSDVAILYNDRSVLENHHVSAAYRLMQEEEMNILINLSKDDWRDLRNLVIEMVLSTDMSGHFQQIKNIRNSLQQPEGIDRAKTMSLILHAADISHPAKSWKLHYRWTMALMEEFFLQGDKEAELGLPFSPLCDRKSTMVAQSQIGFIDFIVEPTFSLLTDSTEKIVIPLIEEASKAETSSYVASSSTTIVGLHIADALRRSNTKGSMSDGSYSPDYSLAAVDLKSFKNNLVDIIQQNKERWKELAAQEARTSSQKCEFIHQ

Row | IC50 (PDE1A) [nM] | IC50 (PDE1B) [nM] | IC50 (PDE1C) [nM] | SMILES
1 | 180 | 27 | 190 | CCOc1ncccc1-c1cc(NCc2ccccn2)c2c(C(C)C)nc(C)n2n1 [Example 74, 2-(2-ethoxy-3-pyridyl)-5-isopropyl-7-methyl-N-(2-pyridylmethyl)imidazo[1,5-b]pyridazin-4-amine]
2 | 11 | 0.13 | 24 | CCOc1ncccc1-c1cc(NCc2ncccn2)c2c(C(C)C)nc(C)n2n1 [Example 75, 2-(2-ethoxy-3-pyridyl)-5-isopropyl-7-methyl-N-(pyrimidin-2-ylmethyl)imidazo[1,5-b]pyridazin-4-amine]
3 | 89 | 17 | 110 | CCOc1ncccc1-c1cc(NCc2ncc(F)cn2)c2c(C(C)C)nc(C)n2n1 [Example 76, 2-(2-ethoxy-3-pyridyl)-N-[(5-fluoropyrimidin-2-yl)methyl]-5-isopropyl-7-methyl-imidazo[1,5-b]pyridazin-4-amine]
4 | 48 | 9 | 48 | CCOc1ncccc1-c1cc(NCc2cccnc2OC)c2c(C(C)C)nc(C)n2n1 [Example 77, 2-(2-ethoxy-3-pyridyl)-5-isopropyl-N-[(2-methoxy-3-pyridyl)methyl]-7-methyl-imidazo[1,5-b]pyridazin-4-amine]
5 | 61 | 5.5 | 39 | CCOc1ncccc1-c1cc(NCc2cccc3cncn23)c2c(C(C)C)nc(C)n2n1 [Example 78, 2-(2-ethoxy-3-pyridyl)-N-(imidazo[1,5-a]pyridin-5-ylmethyl)-5-isopropyl-7-methyl-imidazo[1,5-b]pyridazin-4-amine]

Continued, compound first:

Row | SMILES | IC50 (PDE1A) [nM] | IC50 (PDE1B) [nM] | IC50 (PDE1C) [nM]
6 | CCCOc1nnccc1-c1cc(NCc2ncn(C)n2)c2c(C(C)C)nn(C)c2n1 [Example 67, 3-isopropyl-1-methyl-N-[(1-methyl-1,2,4-triazol-3-yl)methyl]-6-(3-propoxypyridazin-4-yl)pyrazolo[3,4-b]pyridin-4-amine] | 7.8 | 2.7 | 19
7 | CCOc1cnccc1-c1cc(NCc2ncn(C)n2)c2c(C(C)C)nn(C)c2n1 [Example 68, 6-(3-ethoxy-4-pyridyl)-3-isopropyl-1-methyl-N-[(1-methyl-1,2,4-triazol-3-yl)methyl]pyrazolo[3,4-b]pyridin-4-amine] | 58 | 5.5 | 59
8 | CCOc1nnccc1-c1cc(NCc2cnn(C)c2)c2c(C(C)C)nc(C)n2n1 [Example 69, 2-(3-ethoxypyridazin-4-yl)-5-isopropyl-7-methyl-N-[(1-methylpyrazol-4-yl)methyl]imidazo[1,5-b]pyridazin-4-amine] | 24 | 5.2 | 25
9 | CCOc1cnccc1-c1cc(NCc2cnn(C)c2)c2c(C(C)C)nc(C)n2n1 [Example 70, 2-(3-ethoxy-4-pyridyl)-5-isopropyl-7-methyl-N-[(1-methylpyrazol-4-yl)methyl]imidazo[1,5-b]pyridazin-4-amine] | 21 | 6.3 | 28
10 | CCCOc1ncccc1-c1cc(NCc2cnn(C)c2)c2c(C(C)C)nc(C)n2n1 [Example 71, 5-isopropyl-7-methyl-N-[(1-methylpyrazol-4-yl)methyl]-2-(2-propoxy-3-pyridyl)imidazo[1,5-b]pyridazin-4-amine] | 3.3 | 1 | 7
11 | CCCOc1ncccc1-c1cc(NCc2ncn(C)n2)c2c(C(C)C)nc(C)n2n1 [Example 72, 5-isopropyl-7-methyl-N-[(1-methyl-1,2,4-triazol-3-yl)methyl]-2-(2-propoxy-3-pyridyl)imidazo[1,5-b]pyridazin-4-amine] | 1.4 | 0.27 | 1.1
12 | CCOc1ncccc1-c1cc(NCc2cccnc2F)c2c(C(C)C)nc(C)n2n1 [Example 73, 2-(2-ethoxy-3-pyridyl)-N-[(2-fluoro-3-pyridyl)methyl]-5-isopropyl-7-methyl-imidazo[1,5-b]pyridazin-4-amine] | 33 | 3.6 | 29
